The values below come from ChEMBL document CHEMBL1201862, “PubChem BioAssay data set” (2004).

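Dose response: 5 concentrations. Exposure: 48 h. Format: 96-well plates. Endpoint: linear interpolation; highest concentration if not reached. GI50 marks 50% less growth.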 Activity calls are given as the source filed them. Rule as the data show it: active = GI50 up to about 1.1 µM and inactive = higher. Where only a bound is given, the exact number is not on record here.

Some test systems named below: HOP-92; OVCAR-4; TK-10; SW-620; RXF 393; NCI-H226; SK-MEL-5; SK-MEL-28; Hs-578T; IGROV-1; HCT-15; U-251; SF-539; SF-268; HOP-62; MDA-N; NCI/ADR-RES; EKVX; NCI-H460; SN12C.
Common to all, as to experiment: inhibition of tumour cell growth, NCI panel, 48 h

Regarding `Cn1cnc2c(sc3nc4ccccc4n32)c1=N`, the GI50 in the test with HOP-92, with OVCAR-4, with TK-10, in the test on SW-620, in the test with RXF 393 and with NCI-H226 was > 100 µM (inactive) throughout. In addition, the GI50 is > 100 µM (inactive) in the test on SK-MEL-5; > 100 µM (inactive) in the test with SK-MEL-28; 42.7 µM (inactive) in the test on Hs-578T; 22.6 µM (inactive) in the test with IGROV-1; above 100 µM in the test with HCT-15; > 100 µM (inactive) in the test on U-251. Besides, the GI50 with SF-539 was > 100 µM (inactive); in the test on SF-268 it was > 100 µM (inactive); in the test with HOP-62 it was > 100 µM (inactive); in the test with MDA-N, > 100 µM (inactive); in the test on NCI/ADR-RES it was > 100 µM (inactive); in the test on EKVX, 52.2 µM (inactive).

For `C=C(C)[C@@]1(O[Si](C)(C)C)CCCC[C@@H]1CC(Sc1ccccc1)Sc1ccccc1`, the GI50 in the test with HOP-92 is 12.7 µM (inactive); with OVCAR-4 it was 12.6 µM (inactive); with TK-10, 15.4 µM (inactive); with SW-620 it was 14.1 µM (inactive); in the test on NCI-H460, 13.2 µM (inactive); in the test with RXF 393, 10.8 µM (inactive). For the same compound, the GI50 in the test with NCI-H226 was 16.1 µM (inactive); with SK-MEL-5 it was 16.3 µM (inactive); in the test with SK-MEL-28 it was 18.3 µM (inactive); with Hs-578T it was 13.4 µM (inactive); in the test with IGROV-1, 15.6 µM (inactive); with HCT-15, 12.3 µM. The GI50 was 16 µM (inactive) in the test with U-251; 10.2 µM (inactive) in the test on SF-539; 14.8 µM (inactive) in the test with SF-268; 13.8 µM (inactive) with HOP-62; 15.4 µM (inactive) with MDA-N; 13.8 µM (inactive) with NCI/ADR-RES. In the test on EKVX, the GI50 is 17.6 µM (inactive).

As to `C=C1C(C2(C)C=CC(=O)OC3(C)COC(=O)CC32)C(OC=O)C(OC(=O)C(O)C(C)CC)C2(C)C(c3ccoc3)CC(OC(C)=O)C12O` (stereo not drawn), the GI50 in the test with HOP-92 is > 100 µM (inactive); in the test on TK-10 it was > 100 µM (inactive); with SW-620, > 100 µM (inactive); in the test with NCI-H460 it was 42.1 µM (inactive); with RXF 393 it was > 100 µM (inactive); in the test with NCI-H226 it was > 100 µM (inactive). For the same compound, the GI50 with SK-MEL-5 is 35 µM (inactive); with SK-MEL-28, > 100 µM (inactive); in the test with Hs-578T it was > 100 µM (inactive); in the test on IGROV-1, 93.5 µM (inactive); in the test on HCT-15, 84.3 µM; with SN12C, > 100 µM (inactive). The GI50 was > 100 µM (inactive) in the test with U-251; > 100 µM (inactive) in the test with SF-539; > 100 µM (inactive) in the test on SF-268; > 100 µM (inactive) with HOP-62; 37.6 µM (inactive) in the test with MDA-N; > 100 µM (inactive) in the test with NCI/ADR-RES. The GI50 with EKVX was > 100 µM (inactive).

In the case of `COC(=O)[C@H](CNC(=O)/C=C/c1ccc(OC(C)=O)c(OC(C)=O)c1)NC(=O)/C=C/c1ccc(OC(C)=O)c(OC(C)=O)c1`, the GI50 in the test on HOP-92, in the test with OVCAR-4, in the test on SW-620, with NCI-H460, with RXF 393 and with NCI-H226 was > 100 µM (inactive) throughout. Moreover, the GI50 was 62.7 µM (inactive) in the test on SK-MEL-5; > 100 µM (inactive) in the test with SK-MEL-28; > 100 µM (inactive) with Hs-578T; > 100 µM (inactive) in the test on IGROV-1; 69.7 µM in the test with HCT-15; > 100 µM (inactive) in the test on SN12C. For the same compound, the GI50 with U-251 was > 100 µM (inactive); with SF-539, > 100 µM (inactive); in the test on SF-268, > 10 µM (inactive); in the test on HOP-62, > 100 µM (inactive); in the test on MDA-N, > 100 µM (inactive); with NCI/ADR-RES, > 100 µM (inactive). Also, in the test on EKVX, the GI50 was > 100 µM (inactive).

Turning to `CC(=O)OCC1C(=O)OCC1C(=O)N1Cc2cc3ccccc3nc2C1` (stereo not drawn), the GI50 with HOP-92 was 1.24 µM (inactive); with OVCAR-4, 1.65 µM (inactive); in the test on TK-10, 1.61 µM (inactive); in the test on SW-620, 0.469 µM (active); in the test with NCI-H460 it was 13.3 µM (inactive); in the test on RXF 393 it was 1.17 µM (inactive). In addition, the GI50 in the test on NCI-H226 is 5.96 µM (inactive); in the test with SK-MEL-5, 10.2 µM (inactive); in the test with SK-MEL-28, 2.55 µM (inactive); in the test on Hs-578T, 7.14 µM (inactive); in the test with IGROV-1, 10.1 µM (inactive); in the test with HCT-15 it was 1.95 µM. For the same compound, the GI50 with SN12C is 5.27 µM (inactive); in the test with U-251 it was 11.3 µM (inactive); in the test with SF-539, 6 µM (inactive); with SF-268, 7.41 µM (inactive); in the test with HOP-62 it was 16.6 µM (inactive); with MDA-N it was 2.75 µM (inactive). The results for the GI50 in the test with NCI/ADR-RES and in the test on EKVX were 0.69 µM (active) and 8.05 µM (inactive), respectively.

In the case of `O=C1CC(NC(=O)C(F)(F)F)c2c(Br)sc(N3CCC(c4ccccc4)CC3)c21` (stereo not drawn), the GI50 is 3.87 µM (inactive) in the test on HOP-92; 11.5 µM (inactive) with OVCAR-4; 19 µM (inactive) in the test on TK-10; 43.4 µM (inactive) in the test on SW-620; 13.7 µM (inactive) in the test on NCI-H460; 17 µM (inactive) in the test with RXF 393. In addition, the GI50 in the test with NCI-H226 was 28.4 µM (inactive); in the test on SK-MEL-5, 6.03 µM (inactive); in the test with Hs-578T, 20 µM (inactive); with IGROV-1, > 100 µM (inactive); with HCT-15 it was 25.1 µM; in the test with SN12C, > 100 µM (inactive). The GI50 in the test with U-251 was 6.76 µM (inactive); in the test on SF-539 it was 44.6 µM (inactive); with SF-268, 43.4 µM (inactive); with MDA-N it was 78.9 µM (inactive); with NCI/ADR-RES, 69 µM (inactive); in the test with EKVX, 43.9 µM (inactive).

As to `CCCCCC(C)SC1(C(=O)OC)CC(OC(C)=O)C(NC(C)=O)C([C@H](OC(C)=O)[C@@H](COC(C)=O)OC(C)=O)O1` (stereo partly drawn), the GI50 with HOP-92 was 44.4 µM (inactive); with TK-10, > 100 µM (inactive); in the test with SW-620 it was > 100 µM (inactive); in the test with NCI-H460, 78.7 µM (inactive); in the test on RXF 393, 88.1 µM (inactive); with NCI-H226, 40.6 µM (inactive). Besides, the GI50 is 91.2 µM (inactive) in the test on SK-MEL-5; > 100 µM (inactive) in the test with SK-MEL-28; 29.4 µM (inactive) in the test with Hs-578T; > 100 µM (inactive) with IGROV-1; 34.5 µM with HCT-15; > 100 µM (inactive) in the test on SN12C. In addition, the GI50 in the test with U-251 was > 100 µM (inactive); in the test with SF-539 it was 22.3 µM (inactive); in the test with SF-268 it was > 100 µM (inactive); in the test with HOP-62 it was > 100 µM (inactive); with MDA-N it was 90.6 µM (inactive); in the test on NCI/ADR-RES it was > 100 µM (inactive).

Turning to `COc1cc(/C=C2\N=C(c3ccccc3)N(c3cc4cc(Sc5ccccc5)ccc4[nH]3)C2=O)cc(OC)c1OC`, the GI50 is 6.92 µM (inactive) in the test on HOP-92; 26 µM (inactive) with OVCAR-4; 19.2 µM (inactive) with SW-620; 14.3 µM (inactive) in the test on NCI-H460; 10.1 µM (inactive) in the test on RXF 393; 12.2 µM (inactive) in the test with NCI-H226. The GI50 is 10.6 µM (inactive) in the test on SK-MEL-5; 12.9 µM (inactive) with SK-MEL-28; 2.72 µM (inactive) in the test with Hs-578T; 15.5 µM (inactive) in the test with IGROV-1; 14.4 µM in the test with HCT-15; 15.2 µM (inactive) in the test on SN12C. Moreover, the GI50 was 12.3 µM (inactive) in the test on SF-539; 2.16 µM (inactive) in the test with SF-268; 15 µM (inactive) in the test with HOP-62; 3.72 µM (inactive) in the test on MDA-N; 20.2 µM (inactive) in the test on NCI/ADR-RES; 17.5 µM (inactive) in the test on EKVX.

For `CC(CNC(=O)c1ccccc1)(CNC(=O)c1ccccc1)[N+](=O)[O-]`, the GI50 in the test on HOP-92, in the test on TK-10, in the test on SW-620, in the test on NCI-H460, in the test on RXF 393 and in the test on NCI-H226 was > 100 µM (inactive) each time. Further, the GI50 was > 100 µM (inactive) with SK-MEL-5; > 100 µM (inactive) in the test with Hs-578T; > 100 µM (inactive) with IGROV-1; above 100 µM in the test with HCT-15; > 100 µM (inactive) in the test on SN12C; > 100 µM (inactive) with U-251. The GI50 with SF-539, in the test on SF-268, in the test on MDA-N, with NCI/ADR-RES and in the test with EKVX was > 100 µM (inactive) each time.

`N[C@@H]1CCN(c2c(F)cc3c(=O)c(C(=O)O)cn4c3c2Oc2cc3c(ccc5ccccc53)cc2-4)C1`: the GI50 in the test with HOP-92 is 2.72 µM (inactive); in the test on OVCAR-4, 4.36 µM (inactive); in the test on TK-10, 1.45 µM (inactive); in the test on SW-620, 1.41 µM (inactive); with NCI-H460, 0.735 µM (active); in the test on RXF 393, 1.64 µM (inactive). Also, the GI50 in the test on NCI-H226 is 6.58 µM (inactive); with SK-MEL-5, 2.92 µM (inactive); in the test with SK-MEL-28 it was > 21.1 µM (inactive); in the test on Hs-578T, 15.9 µM (inactive); in the test with IGROV-1, 1.82 µM (inactive); with HCT-15, 1.69 µM. In addition, the GI50 is 2.08 µM (inactive) in the test on SN12C; 0.906 µM (active) in the test with U-251; 3.37 µM (inactive) in the test on SF-539; 4.82 µM (inactive) in the test on HOP-62; 3.01 µM (inactive) in the test on MDA-N; > 79.3 µM (inactive) in the test on NCI/ADR-RES.

For `O=[N+]([O-])c1ccc(Oc2c(Cl)cc(S(=O)(=O)N/C(=N\O)Nc3ccc(Cl)cc3)cc2Cl)c(Cl)c1`, the GI50 is 12.8 µM (inactive) in the test on HOP-92; 11.7 µM (inactive) in the test on OVCAR-4; 16 µM (inactive) with TK-10; 24.9 µM (inactive) in the test with SW-620; 15.6 µM (inactive) in the test with NCI-H460; 13.2 µM (inactive) in the test on RXF 393. Further, the GI50 in the test with NCI-H226 was 25.3 µM (inactive); in the test with SK-MEL-5 it was 16.9 µM (inactive); in the test with SK-MEL-28 it was 21.6 µM (inactive); with Hs-578T, 13.7 µM (inactive); in the test with HCT-15, 16.3 µM; in the test on SN12C, 14.3 µM (inactive). Also, the GI50 with U-251 was 15.4 µM (inactive); with SF-539 it was 20.3 µM (inactive); in the test with SF-268, 13.6 µM (inactive); with HOP-62, 16.5 µM (inactive); in the test with MDA-N, 15.6 µM (inactive); with NCI/ADR-RES, 21.7 µM (inactive). In the test on EKVX, the GI50 was 14.8 µM (inactive).
